Experimental data reported in ChEMBL document CHEMBL1157480, “Petrosamine, a potent anticholinesterase pyridoacridine alkaloid from a Thai marine sponge Petrosia n. sp” (Bioorg Med Chem, 2008).

Target: Acetylcholinesterase (Torpedo californica, UniProt P04058)
Test: Inhibition of Torpedo californica AchE activity by Ellman's assay
Set-up: species or system Tetronarce californica

Sequence of Acetylcholinesterase (P04058 whole entry): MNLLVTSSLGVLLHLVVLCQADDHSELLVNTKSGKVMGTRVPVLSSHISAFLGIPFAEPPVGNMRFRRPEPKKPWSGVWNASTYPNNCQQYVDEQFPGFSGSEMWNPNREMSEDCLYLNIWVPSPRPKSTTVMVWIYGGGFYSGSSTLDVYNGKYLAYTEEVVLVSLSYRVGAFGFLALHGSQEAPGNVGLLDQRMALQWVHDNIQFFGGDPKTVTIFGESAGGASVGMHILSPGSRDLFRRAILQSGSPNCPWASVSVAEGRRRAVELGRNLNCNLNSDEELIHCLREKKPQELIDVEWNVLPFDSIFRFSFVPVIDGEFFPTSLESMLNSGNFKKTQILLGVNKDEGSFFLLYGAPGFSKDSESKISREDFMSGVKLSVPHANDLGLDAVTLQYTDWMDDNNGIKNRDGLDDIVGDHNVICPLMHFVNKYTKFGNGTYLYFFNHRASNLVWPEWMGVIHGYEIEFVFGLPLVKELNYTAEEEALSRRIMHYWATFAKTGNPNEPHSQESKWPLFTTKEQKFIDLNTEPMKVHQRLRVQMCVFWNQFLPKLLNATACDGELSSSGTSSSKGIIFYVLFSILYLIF

SMILES	IC50 [nM]
Cn1cc2c(cc1=O)-c1nc3cc(Br)ccc3c3ccnc(c13)C2=O	> 300000
Cn1ccc2c3nc4cc(Br)ccc4c4c3c(c(=O)c-2c1)[N+](C)(C)CC4=O [PETROSAMINE]	91
